A word on the EC50: it is the concentration giving half of the maximal effect.

The values below come from ChEMBL document CHEMBL1126789, “Conformational effects on retinoid receptor selectivity. 1. Effect of 9-double bond geometry on retinoid X receptor activity” (J Med Chem, 1993).

The target in experiment [1] is T1, Retinoic acid receptor beta (Homo sapiens, UniProt P10826).
T1 sequence (P10826 whole entry): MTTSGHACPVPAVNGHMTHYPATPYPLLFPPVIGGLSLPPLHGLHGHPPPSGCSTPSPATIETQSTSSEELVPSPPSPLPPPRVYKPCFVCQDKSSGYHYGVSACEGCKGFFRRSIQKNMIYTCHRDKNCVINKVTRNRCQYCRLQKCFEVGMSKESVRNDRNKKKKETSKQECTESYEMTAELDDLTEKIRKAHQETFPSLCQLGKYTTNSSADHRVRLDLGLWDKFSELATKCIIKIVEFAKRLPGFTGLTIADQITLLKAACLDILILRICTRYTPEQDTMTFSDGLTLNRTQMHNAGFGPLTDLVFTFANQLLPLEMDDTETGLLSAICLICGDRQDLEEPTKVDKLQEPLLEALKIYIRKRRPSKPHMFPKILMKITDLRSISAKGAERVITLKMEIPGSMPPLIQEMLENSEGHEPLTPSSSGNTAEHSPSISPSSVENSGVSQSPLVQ
Description: Effective concentration against Retinoic acid receptor beta.

In experiment [2] the target is T2, Retinoic acid receptor gamma (Homo sapiens, UniProt P13631).
T2 sequence (P13631 whole entry): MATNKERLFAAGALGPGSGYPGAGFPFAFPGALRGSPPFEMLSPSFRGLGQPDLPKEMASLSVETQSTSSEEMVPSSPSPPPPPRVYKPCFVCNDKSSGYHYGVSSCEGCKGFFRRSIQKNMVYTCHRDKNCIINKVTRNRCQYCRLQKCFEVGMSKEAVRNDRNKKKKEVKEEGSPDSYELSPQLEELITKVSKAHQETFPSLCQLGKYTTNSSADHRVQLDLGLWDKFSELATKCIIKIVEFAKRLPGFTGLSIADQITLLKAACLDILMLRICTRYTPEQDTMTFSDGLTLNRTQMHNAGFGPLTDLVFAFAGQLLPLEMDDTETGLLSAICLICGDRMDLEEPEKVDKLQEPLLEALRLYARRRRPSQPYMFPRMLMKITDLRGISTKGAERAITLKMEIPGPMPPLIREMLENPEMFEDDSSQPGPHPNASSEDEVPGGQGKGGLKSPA
Description: Effective concentration against RAR-gamma receptor.

Experiment [3] addresses T3, Retinoic acid receptor alpha (Homo sapiens, UniProt P10276).
T3 sequence (P10276 whole entry): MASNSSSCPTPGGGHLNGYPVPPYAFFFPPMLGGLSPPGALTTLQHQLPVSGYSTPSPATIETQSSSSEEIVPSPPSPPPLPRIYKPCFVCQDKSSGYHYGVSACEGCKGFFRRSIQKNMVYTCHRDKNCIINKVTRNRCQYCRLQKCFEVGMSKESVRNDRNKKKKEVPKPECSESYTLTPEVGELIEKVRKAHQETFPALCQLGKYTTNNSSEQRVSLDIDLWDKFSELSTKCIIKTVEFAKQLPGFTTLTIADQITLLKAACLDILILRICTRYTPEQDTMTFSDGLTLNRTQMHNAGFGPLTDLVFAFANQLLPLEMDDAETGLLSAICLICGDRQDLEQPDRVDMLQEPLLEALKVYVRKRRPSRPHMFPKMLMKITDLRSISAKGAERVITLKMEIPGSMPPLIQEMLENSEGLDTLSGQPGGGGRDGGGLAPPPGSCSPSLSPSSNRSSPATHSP
Description: Effective concentration against RAR-alpha receptor.

Experiment [4] has as its target T4, Retinoic acid receptor RXR-alpha (Homo sapiens, UniProt P19793).
T4 sequence (P19793 whole entry): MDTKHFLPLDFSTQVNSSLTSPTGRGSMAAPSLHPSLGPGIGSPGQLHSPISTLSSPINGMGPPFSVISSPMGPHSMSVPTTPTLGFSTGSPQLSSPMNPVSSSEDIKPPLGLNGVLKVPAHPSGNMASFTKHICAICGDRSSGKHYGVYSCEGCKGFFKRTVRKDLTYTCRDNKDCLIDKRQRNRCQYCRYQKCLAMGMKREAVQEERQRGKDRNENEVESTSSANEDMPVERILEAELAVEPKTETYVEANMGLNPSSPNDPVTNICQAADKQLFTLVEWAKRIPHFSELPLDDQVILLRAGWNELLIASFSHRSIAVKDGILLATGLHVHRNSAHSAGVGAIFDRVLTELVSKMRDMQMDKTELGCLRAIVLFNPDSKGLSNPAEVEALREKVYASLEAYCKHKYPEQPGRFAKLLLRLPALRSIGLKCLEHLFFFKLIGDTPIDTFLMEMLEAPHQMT
Description: Effective concentration against RXR-alpha receptor.

Experiment [5] has as its target T1, Retinoic acid receptor beta. Description: Effective concentration against RAR-beta receptor.

Molecules are shown by their SMILES.

Regarding `CC1=C(/C=C/C(C)=C\c2ccc(C(=O)O)cc2)C(C)(C)CCC1`, the EC50 in experiment [1] amounted to 1.8 µM; in experiment [2], 2 µM; in experiment [3] it was 5 µM.
In the same order, the values of `CC1=C(/C=C/C(C)=C/c2ccc(C(=O)O)cc2)C(C)(C)CCC1` are 0.005 µM, 0.035 µM and 0.24 µM.
As to `C/C(=C\c1ccc2c(c1)C(C)(C)CCC2(C)C)c1ccc(C(=O)O)cc1`, the EC50 was 0.025 µM in experiment [1], 0.019 µM in experiment [2] and 0.037 µM in experiment [3].
Consider `CC1=C(CC/C(C)=C\c2ccc(C(=O)O)cc2)C(C)(C)CCC1`, for which the EC50 was determined as 2 µM in experiment [1] and 1.3 µM in experiment [2].
Consider `CC1=C(CC/C(C)=C/c2ccc(C(=O)O)cc2)C(C)(C)CCC1`, for which the EC50 is 1.5 µM in experiment [4], 0.02 µM in experiment [1], 0.21 µM in experiment [2] and 0.55 µM in experiment [3].
In the case of `C/C(=C\c1ccc(C(=O)O)cc1)c1ccc2c(c1)C(C)(C)CCS2`, the EC50 in experiment [1] was 0.015 µM; in experiment [2], 0.03 µM; in experiment [3], 0.027 µM.
For the molecule `C/C(=C\c1ccc(C(=O)O)cc1)c1ccc2c(c1)C1CCC2C1` (stereo not drawn), the results for the EC50 in experiment [5] and in experiment [2] were 1.1 µM and 0.55 µM, respectively.
As to `C/C(=C/c1ccc(C(=O)O)cc1)c1ccc2c(c1)C(C)(C)CCS2`, the EC50 amounted to 0.25 µM in experiment [1], 1.1 µM in experiment [2] and 2.3 µM in experiment [3].
Take `C/C(=C\c1ccc2c(c1)C(C)(C)CCS2)c1ccc(C(=O)O)cc1`: the concentration for a half-maximal effect (EC50) was 0.04 µM in experiment [1], 0.047 µM in experiment [2] and 0.045 µM in experiment [3].
In turn, `C/C(=C/c1ccc(C(=O)O)cc1)c1ccc2c(c1)C1CCC2C1` (stereo not drawn) registered an EC50 in experiment [2] of 0.07 µM.
In experiment [4], `C/C(=C/c1ccc(C(=O)O)cc1)c1ccc2c(c1)C(C)(C)CCC2(C)C` gave an EC50 of 2.7 µM.
As to `C/C(=C/c1ccc2c(c1)C(C)(C)CCC2(C)C)c1ccc(C(=O)O)cc1`, the EC50 was found to be 1.1 µM in experiment [4], 1.9 µM in experiment [1] and 2.7 µM in experiment [2].
For `C/C(=C/c1ccc2c(c1)C(C)(C)CCS2)c1ccc(C(=O)O)cc1`, the EC50 is 2.8 µM in experiment [4], 1.5 µM in experiment [1], 1.5 µM in experiment [2] and 2.1 µM in experiment [3].
On to `CC1(C)CCC(C)(C)c2cc(-c3ccccc3-c3ccc(C(=O)O)cc3)ccc21`, for which the concentration for a half-maximal effect (EC50) in experiment [4] stood at 2.8 µM; in experiment [1], 3.2 µM; in experiment [2], 0.1 µM.
